# Test results reported in patent US12655116B2, “Substituted isophthalic acid diamides” (Bayer Aktiengesellschaft, priority 2020, dated 2026).
# What was measured:
# AVEFA = assay: Pre-emergence herbicidal action against AVEFA; format: in vivo, Avena fatua; conditions: 80 g/ha, pre-emergence
# Outline: (§1)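 Visual rating at 3 weeks vs untreated pots; 0–100% scale, 100% = plants died. Treatment: aqueous WP/EC spray onto covering soil, 600–800 l/ha, 0.2% wetter, seeds in sandy loam.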
# ABUTH [1] = assay: Pre-emergence herbicidal action against ABUTH; format: in vivo, Abutilon theophrasti; conditions: for Pre-emergence action against ABUTH (herbicidal activity): 80 g/ha, scored visually after 3 weeks vs untreated controls (100% = plants have died, 0% = like control plants); for Pre-emergence action against ABUTH (herbicidal activity in percent): dosage 20 g/ha, scored visually after 3 weeks vs untreated controls, 100% = plants have died, 0% = like control plants
# Outline: as §1
# VERPE [2] = assay: Pre-emergence herbicidal action against VERPE; format: in vivo, Veronica persica
# Outline: as §1
# AMARE [3] = assay: Post-emergence herbicidal action against AMARE; format: in vivo, Amaranthus retroflexus; conditions: 20 g/ha, visual assessment about 3 weeks after treatment, 100% = plants have died, 0% = like control plants
# Outline: (§2)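 Greenhouse pot plants in sandy loam were sprayed at the one-leaf stage, 2 to 3 weeks after sowing, with WP or EC formulations as aqueous suspension or emulsion (600 to 800 l/ha water, 0.2% wetting agent). About 3 weeks later, damage was scored visually against untreated controls as % action (100% = dead, 0% = like control).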
# AMARE [4] = assay: Pre-emergence herbicidal action against AMARE; format: in vivo, Amaranthus retroflexus
# Outline: as §1
# VIOTR [5] = assay: Post-emergence herbicidal action against VIOTR; format: in vivo, Viola tricolor
# Outline: as §2
# MATIN = assay: Pre-emergence herbicidal action against MATIN; format: in vivo, Matricaria inodora
# Outline: as §1
# ABUTH [6] = assay: Post-emergence herbicidal action against ABUTH; format: in vivo, Abutilon theophrasti; conditions: visual assessment about 3 weeks after treatment vs untreated controls
# Outline: as §2
# SETVI = assay: Post-emergence herbicidal action against SETVI; format: in vivo, Setaria viridis; conditions: dosage 20 g/ha
# Outline: as §2
# VIOTR [7] = assay: Pre-emergence herbicidal action against VIOTR; format: in vivo, Viola tricolor
# Outline: as §1
# VERPE [8] = assay: Post-emergence herbicidal action against VERPE; format: in vivo, Veronica persica; conditions: 20 g/ha
# Protocol: Seeds of monocotyledonous and dicotyledonous weed and crop plants are laid out in sandy loam soil in wood-fiber pots, covered with soil and cultivated in a greenhouse under good growth conditions. 2 to 3 weeks after sowing, the test plants are treated at the one-leaf stage. The compounds of the invention, formulated in the form of wettable powders (WP) or as emulsion concentrates (EC), are then sprayed onto the green parts of the plants in the form of an aqueous suspension or emulsion at a water application rate equivalent to 600 to 800 l/ha, with addition of 0.2% wetting agent. After the test plants have been left to stand in the greenhouse under optimal growth conditions for about 3 weeks, the action of the preparations is assessed visually in comparison to untreated controls (herbicidal action in percent (%): 100% activity=the plants have died, 0% activity=like control plants). […] The tables below illustrate, in an illustrative manner, the post-emergence herbicidal action of the compounds of the invention, the herbicidal activity being stated in percent.
# ALOMY [9] = assay: Pre-emergence herbicidal action against ALOMY; format: in vivo, Alopecurus myosuroides; conditions: 80 g/ha, pre-emergence, scored visually after 3 weeks vs untreated controls (100% = plants have died, 0% = like control plants)
# Outline: as §1
# ALOMY [10] = assay: Post-emergence herbicidal action against ALOMY; format: in vivo, Alopecurus myosuroides; conditions: dosage 20 g/ha, visual assessment about 3 weeks after treatment vs untreated controls
# Outline: as §2
# PHBPU = assay: Post-emergence herbicidal action against PHBPU; format: in vivo, Pharbitis purpurea; conditions: dosage 20 g/ha
# Outline: as §2
# ECHCG [11] = assay: Pre-emergence herbicidal action against ECHCG; format: in vivo, Echinochloa crus-galli; conditions: 80 g/ha
# Outline: as §1
# ECHCG [12] = assay: Post-emergence herbicidal action against ECHCG; format: in vivo, Echinochloa crus-galli
# Outline: as §2
# [13] = 20 g/ha, scored visually after 3 weeks vs untreated controls, 100% = plants have died, 0% = like control plants
# [14] = 80 g/ha, scored visually after 3 weeks vs untreated controls (100% = plants have died, 0% = like control plants)
Structure (SMILES),Pre-emergence action against AVEFA in % (AVEFA),Pre-emergence action against ABUTH (herbicidal activity) (ABUTH [1]),Pre-emergence action against ABUTH (herbicidal activity in percent) (ABUTH [1]),Pre-emergence action against VERPE in % (VERPE [2]; dosage 80 g/ha),Post-emergence action at 20 g/ha against AMARE in % (AMARE [3]),Pre-emergence action against AMARE in % (AMARE [4]; [13]),Pre-emergence action against AMARE in % (AMARE [4]; [14]),Post-emergence action against VIOTR in % (VIOTR [5]; 20 g/ha),Pre-emergence action against MATIN in % (MATIN; dosage 20 g/ha),Pre-emergence action against MATIN in % (MATIN; dosage 80 g/ha),Post-emergence action against ABUTH in % (ABUTH [6]; dosage 5 g/ha),Post-emergence action against ABUTH in % (ABUTH [6]; dosage 20 g/ha),Pre-emergence action against VIOTR in % (VIOTR [7]; dosage 20 g/ha),Pre-emergence action against VIOTR in % (VIOTR [7]; dosage 80 g/ha),Post-emergence action against VERPE in % (VERPE [8]),Pre-emergence action against ALOMY (herbicidal activity) (ALOMY [9]),Post-emergence action against ALOMY in % (ALOMY [10]),Post-emergence action against PHBPU in % (PHBPU),Pre-emergence action against ECHCG in % (ECHCG [11]),also measured
CCn1nnnc1NC(=O)c1ccc(OC)c(C(=O)NC2CC2)c1Cl [Example 2-354],90%,100%,90%,80%,100%,100%,100%,100%,100%,100%,90%,90%,80%,100%,90%,90%,80%,80%,,Pre-emergence action against VERPE in % (VERPE [2]; dosage 20 g/ha): 80%; Post-emergence action against SETVI in % (SETVI): 90%
CCn1nnnc1NC(=O)c1ccc(Br)c(C(=O)NCCOC)c1Cl [Example 2-186],80%,100%,100%,90%,100%,100%,100%,80%,80%,100%,80%,90%,,90%,80%,100%,80%,,100%,
CCn1nnnc1NC(=O)c1ccc(C(F)F)c(C(=O)NCCOC)c1C [Example 2-346],80%,90%,80%,80%,100%,100%,100%,100%,90%,90%,90%,90%,80%,80%,80%,80%,80%,80%,90%,Post-emergence action against VIOTR in % (VIOTR [5]; 5 g/ha): 80%; Post-emergence action against ECHCG in % (ECHCG [12]; dosage 5 g/ha): 80%; Post-emergence action against ECHCG in % (ECHCG [12]; dosage 20 g/ha): 90%
